# Test results as given in patent publication US20130225508A1, “PEPTIDE CAPABLE OF BINDING TO IMMUNOGLOBULIN” (priority 2010, published 2013).
# Tested on: adjuvant-induced arthritis
# Experiment: Adjuvant arthritis rat model
# Format: in vivo, Lewis/CrlCrlj rats
# Set-up: key to Redness scores (left hind-limb) / Redness scores (right hind-limb): 0 = no redness, 4 = severe redness; key to Scores of swelling in the instep (left hind-limb) / Scores of swelling in the instep (right hind-limb): 0 = no swelling, 4 = severe swelling; key to Scores of swelling in knuckle joints (left hind-limb) / Scores of swelling in knuckle joints (right hind-limb): 0 = no swelling, 4 = swelling of all the digits
# Excerpt: Male Lewis/CrlCrlj (SPF) rats were used to investigate the arthritis suppressing effect of a peptide of the present invention on adjuvant-induced arthritis. Forty-five rats were purchased from Charles River Laboratories Japan, Inc., and fed normal chow and allowed to acclimate for 7 days before used (the range of body weights was from 193.3 to 218.3 g at the beginning of use).
# In an agate motor, dead tubercle bacilli (Mycobacterium butyricum; Lot No. 0260570, Difco) were pulverized. Then, liquid paraffin was added in small amounts to spread the pulverized bacilli well, so as to allow them to be emulsified at 1.0 mg/mL. The resultant emulsion was used after verification to ensure that the pulverized bacilli had been allowed to be finely emulsified, using an NM MICRONIZER (Nippon Seiki Co., Ltd.).
# A right hind-limb of the respective rats was exposed, and 100 μL of the emulsion was intradermally injected once into a footpad of the right hind-limb using a 25G-needle attached syringe, to cause arthritis (day 0).
# Each of the groups was comprised of 5 animals.
# Arthritis was evaluated only for the hind-limbs, based on the criteria described below:
# Score 0: no swelling Score 1: swelling of not more than two digits Score 2: swelling of three digits Score 3: swelling of four digits Score 4: swelling of all the digits
# Score 0: no swelling Score 1: mild swelling Score 2: modest swelling Score 3: rather severe swelling Score 4: severe swelling
# Score 0: no redness Score 1: mild redness Score 2: modest redness Score 3: rather severe redness Score 4: severe redness (iii) Measurement of Foot Volumes of Left And Right Hind-Limbs
# Measurement was performed using a plethysmometer (UNICOM TK105). The increasing rate foot volume (percentage of paw swelling, paw swelling %) was calculated by the following formula:
# Percent paw swelling (%)=[(Vt−Vo)/Vo]×100
# In addition, in these examinations, the percent change of edema relative to day 10 post-adjuvant was calculated, in order to assess the effect of treatment with the test substances.
# Data are expressed by mean±standard error. Since the uniformity of variance was not verified in testing between the negative and the positive control groups, testing for significant difference was performed by Aspin-Welch t-test. Since the uniformity of variance was not verified in testing for significant differences of the respective test-substance administered groups relative to the positive control group, assessment was performed by Dunnett's multiple comparison test after Kruskal-Wallis testing, using non-parametric procedures. Differences were considered to be statistically significant at p values of less than 0.05.
# [1] = Day 0 post-adjuvant, 0.15 mg/kg oral from day 10
# [2] = Day 0 post-adjuvant, 0.15 mg/kg oral, pre-administered group
# [3] = Day 3 post-adjuvant, 0.15 mg/kg oral from day 10
# [4] = Day 3 post-adjuvant, 0.15 mg/kg oral, pre-administered group
# [5] = Day 7 post-adjuvant, 0.15 mg/kg oral from day 10
# [6] = Day 7 post-adjuvant, 0.15 mg/kg oral, pre-administered group
# [7] = Day 10 post-adjuvant, 0.15 mg/kg oral from day 10
# [8] = Day 10 post-adjuvant, 0.15 mg/kg oral, pre-administered group
# [9] = Day 14 post-adjuvant, 0.15 mg/kg oral from day 10
# [10] = Day 14 post-adjuvant, 0.15 mg/kg oral, pre-administered group
# [11] = Day 17 post-adjuvant, 0.15 mg/kg oral from day 10
# [12] = Day 17 post-adjuvant, 0.15 mg/kg oral, pre-administered group
# [13] = Day 21 post-adjuvant, 0.15 mg/kg oral from day 10
# [14] = Day 21 post-adjuvant, 0.15 mg/kg oral, pre-administered group
structure (smiles),measurement,setting,value
CN(Cc1cnc2nc(N)nc(N)c2n1)c1ccc(C(=O)N[C@@H](CCC(=O)O)C(=O)O)cc1 [Methotrexate],Redness scores (left hind-limb),[1],0.0 ± 0.0
same,Redness scores (right hind-limb),[1],0.0 ± 0.0
same,Scores of swelling in knuckle joints (left hind-limb),[1],0.0 ± 0.0
same,Scores of swelling in knuckle joints (right hind-limb),[1],0.0 ± 0.0
same,Scores of swelling in the instep (left hind-limb),[1],0.0 ± 0.0
same,Scores of swelling in the instep (right hind-limb),[1],0.0 ± 0.0
same,Total scores (left hind-limb),[1],0.0 ± 0.0
same,Total scores (right hind-limb),[1],0.0 ± 0.0
same,Redness scores (left hind-limb),[2],0.0 ± 0.0
same,Redness scores (right hind-limb),[2],0.0 ± 0.0
same,Scores of swelling in knuckle joints (left hind-limb),[2],0.0 ± 0.0
same,Scores of swelling in knuckle joints (right hind-limb),[2],0.0 ± 0.0
same,Scores of swelling in the instep (left hind-limb),[2],0.0 ± 0.0
same,Scores of swelling in the instep (right hind-limb),[2],0.0 ± 0.0
same,Total scores (left hind-limb),[2],0.0 ± 0.0
same,Total scores (right hind-limb),[2],0.0 ± 0.0
same,Redness scores (left hind-limb),[3],0.0 ± 0.0
same,Redness scores (right hind-limb),[3],0.0 ± 0.0
same,Scores of swelling in knuckle joints (left hind-limb),[3],0.0 ± 0.0
same,Scores of swelling in knuckle joints (right hind-limb),[3],0.0 ± 0.0
same,Scores of swelling in the instep (left hind-limb),[3],0.0 ± 0.0
same,Scores of swelling in the instep (right hind-limb),[3],0.0 ± 0.0
same,Total scores (left hind-limb),[3],0.0 ± 0.0
same,Total scores (right hind-limb),[3],0.0 ± 0.0
same,Redness scores (left hind-limb),[4],0.0 ± 0.0
same,Redness scores (right hind-limb),[4],0.0 ± 0.0
same,Scores of swelling in knuckle joints (left hind-limb),[4],0.0 ± 0.0
same,Scores of swelling in knuckle joints (right hind-limb),[4],0.0 ± 0.0
same,Scores of swelling in the instep (left hind-limb),[4],0.0 ± 0.0
same,Scores of swelling in the instep (right hind-limb),[4],0.0 ± 0.0
same,Total scores (left hind-limb),[4],0.0 ± 0.0
same,Total scores (right hind-limb),[4],0.0 ± 0.0
same,Redness scores (left hind-limb),[5],0.0 ± 0.0
same,Redness scores (right hind-limb),[5],0.4 ± 0.2
same,Scores of swelling in knuckle joints (left hind-limb),[5],0.4 ± 0.2
same,Scores of swelling in knuckle joints (right hind-limb),[5],0.6 ± 0.2
same,Scores of swelling in the instep (left hind-limb),[5],0.0 ± 0.0
same,Scores of swelling in the instep (right hind-limb),[5],1.2 ± 0.2
same,Total scores (left hind-limb),[5],0.4 ± 0.5
same,Total scores (right hind-limb),[5],2.2 ± 0.8
same,Redness scores (left hind-limb),[6],0.0 ± 0.0
same,Redness scores (right hind-limb),[6],0.2 ± 0.2
same,Scores of swelling in knuckle joints (left hind-limb),[6],0.0 ± 0.0
same,Scores of swelling in knuckle joints (right hind-limb),[6],0.4 ± 0.2
same,Scores of swelling in the instep (left hind-limb),[6],0.0 ± 0.0
same,Scores of swelling in the instep (right hind-limb),[6],0.0 ± 0.0
same,Total scores (left hind-limb),[6],0.0 ± 0.0
same,Total scores (right hind-limb),[6],0.6 ± 0.4
same,Redness scores (left hind-limb),[7],0.4 ± 0.2
same,Redness scores (right hind-limb),[7],1.4 ± 0.4
same,Scores of swelling in knuckle joints (left hind-limb),[7],0.6 ± 0.2
same,Scores of swelling in knuckle joints (right hind-limb),[7],1.6 ± 0.4
same,Scores of swelling in the instep (left hind-limb),[7],0.6 ± 0.2
same,Scores of swelling in the instep (right hind-limb),[7],1.4 ± 0.4
same,Total scores (left hind-limb),[7],1.6 ± 0.5
same,Total scores (right hind-limb),[7],4.4 ± 1.5
same,Redness scores (left hind-limb),[8],0.0 ± 0.0
same,Redness scores (right hind-limb),[8],0.0 ± 0.0
same,Scores of swelling in knuckle joints (left hind-limb),[8],0.2 ± 0.2
same,Scores of swelling in knuckle joints (right hind-limb),[8],0.2 ± 0.2
same,Scores of swelling in the instep (left hind-limb),[8],0.0 ± 0.0
same,Scores of swelling in the instep (right hind-limb),[8],0.4 ± 0.2
same,Total scores (left hind-limb),[8],0.2 ± 0.2
same,Total scores (right hind-limb),[8],0.6 ± 0.4
same,Redness scores (left hind-limb),[9],0.2 ± 0.2
same,Redness scores (right hind-limb),[9],1.0 ± 0.3
same,Scores of swelling in knuckle joints (left hind-limb),[9],0.8 ± 0.2
same,Scores of swelling in knuckle joints (right hind-limb),[9],1.2 ± 0.2
same,Scores of swelling in the instep (left hind-limb),[9],0.2 ± 0.2
same,Scores of swelling in the instep (right hind-limb),[9],1.4 ± 0.4
same,Total scores (left hind-limb),[9],1.2 ± 0.6
same,Total scores (right hind-limb),[9],3.6 ± 1.1
same,Redness scores (left hind-limb),[10],0.0 ± 0.0
same,Redness scores (right hind-limb),[10],0.2 ± 0.2
same,Scores of swelling in knuckle joints (left hind-limb),[10],0.4 ± 0.2
same,Scores of swelling in knuckle joints (right hind-limb),[10],0.8 ± 0.2
same,Scores of swelling in the instep (left hind-limb),[10],0.0 ± 0.0
same,Scores of swelling in the instep (right hind-limb),[10],0.8 ± 0.2
same,Total scores (left hind-limb),[10],0.4 ± 0.2
same,Total scores (right hind-limb),[10],1.8 ± 0.2
same,Redness scores (left hind-limb),[11],0.6 ± 0.4
same,Redness scores (right hind-limb),[11],1.2 ± 0.2
same,Scores of swelling in knuckle joints (left hind-limb),[11],0.4 ± 0.2
same,Scores of swelling in knuckle joints (right hind-limb),[11],0.6 ± 0.2
same,Scores of swelling in the instep (left hind-limb),[11],0.8 ± 0.6
same,Scores of swelling in the instep (right hind-limb),[11],2.0 ± 0.4
same,Total scores (left hind-limb),[11],1.8 ± 1.4
same,Total scores (right hind-limb),[11],3.8 ± 0.9
same,Redness scores (left hind-limb),[12],0.4 ± 0.4
same,Redness scores (right hind-limb),[12],0.8 ± 0.4
same,Scores of swelling in knuckle joints (left hind-limb),[12],0.6 ± 0.2
same,Scores of swelling in knuckle joints (right hind-limb),[12],1.0 ± 0.3
same,Scores of swelling in the instep (left hind-limb),[12],0.4 ± 0.2
same,Scores of swelling in the instep (right hind-limb),[12],1.4 ± 0.2
same,Total scores (left hind-limb),[12],1.4 ± 0.7
same,Total scores (right hind-limb),[12],3.2 ± 0.8
same,Redness scores (left hind-limb),[13],0.6 ± 0.6
same,Redness scores (right hind-limb),[13],1.2 ± 0.5
same,Scores of swelling in knuckle joints (left hind-limb),[13],0.6 ± 0.6
same,Scores of swelling in knuckle joints (right hind-limb),[13],0.8 ± 0.6
same,Scores of swelling in the instep (left hind-limb),[13],0.6 ± 0.6
same,Scores of swelling in the instep (right hind-limb),[13],2.2 ± 0.6
same,Total scores (left hind-limb),[13],1.8 ± 2.3
same,Total scores (right hind-limb),[13],4.2 ± 2.0
same,Redness scores (left hind-limb),[14],0.2 ± 0.2
same,Redness scores (right hind-limb),[14],0.8 ± 0.2
same,Scores of swelling in knuckle joints (left hind-limb),[14],0.4 ± 0.2
same,Scores of swelling in knuckle joints (right hind-limb),[14],0.8 ± 0.2
same,Scores of swelling in the instep (left hind-limb),[14],0.2 ± 0.2
same,Scores of swelling in the instep (right hind-limb),[14],1.2 ± 0.4
same,Total scores (left hind-limb),[14],0.8 ± 0.6
same,Total scores (right hind-limb),[14],2.8 ± 0.6
